Test results from patent US12697326B2, “Methods of treating hepatic encephalopathy” (SALIX PHARMACEUTICALS, INC., priority 2008, dated 2026).

Legend:
[1] = tested on: HE-related hospitalization in subjects with hepatic encephalopathy (HE); assay: Time to first HE-related hospitalization, first study; format: in vivo, human; details: for Cummulative number of events / Number of events / Probability of no HE-related hospitalization: ITT
Text: Time to first HE-related hospitalization was computed as the number of days from the first dose of rifaximin to the first hospitalization for an HE related event. The analysis of time to first HE-related hospitalization was based on the comparison of time to hospitalization between rifaximin and placebo.
FIG. 9 illustrates time to first HE-related hospitalization (e.g., hospitalization directly resulting from HE or hospitalization caused by HE) by treatment group in the ITT population in the first study. Table 19 presents estimates of the proportions of subjects who had their first HE-related hospitalization over the course of the Treatment Period and results of statistical analyses. Subjects who discontinued prior to hospitalization due to HE and prior to completion of the 6-month treatment period were censored at the time of discontinuation. […] This hazard ratio represents a 50% reduction, when compared with placebo, in the risk of hospitalization due to HE during the 6-month treatment period.
Note for FIG. 9, the survival distribution estimate on y-axis represents the proportion of subjects without HE-related hospitalization. Dashed line represents rifaximin group and solid line represents placebo group. Open circles and open triangles represent censored subjects. Subjects who discontinued prior to hospitalization due to HE and prior to completion of the 6-month treatment period were censored at the time of discontinuation. Hepatic encephalopathy-related hospitalization was recorded on the HE-related hospitalization CRF.

[2] = human, in vivo
[3] = tested on: Epworth Sleepiness Scale in subjects with HE; assay: Epworth Sleepiness Scale total score; format: in vivo, human; details: 550 mg BID
Text: Total scores for the Epworth Sleepiness Scale were computed and summarized at baseline and Days 28, 56, 84, 112, 140 and 168 using descriptive statistics. Treatment differences for mean change in total scores from baseline to Days 28, 56, 84, 112, 140 and 168 were summarized and compared between treatments.

subjects with HE = assay: Treatment-emergent adverse events, first study; format: in vivo, human; details: rifaximin group
Text: A total of 79.9% of subjects (239 of 299) experienced TEAEs during the course of the study.

[4] = tested on: asterixis grade in subjects with HE; assay: Level of change from baseline in asterixis grade by treatment group, first study; format: in vivo, human; details: 550 mg BID, Baseline to EOT
Description: Asterixis (flapping tremor) was determined with the subject holding both arms and forearms extended with wrists dorsiflexed and fingers open for ≥30 seconds. Asterixis was measured on a continuum of 5 grades, e.g., grades 0 and 4=no abnormal movement vs. almost continuous flapping motions, respectively as shown below: • Grade 0=No tremors; • Grade 1=Rare flapping motions; • Grade 2=Occasional, irregular flaps; • Grade 3=Frequent flaps; and • Grade 4=Almost continuous flapping motions.

[5] = tested on: all-cause hospitalization in subjects with HE; assay: All-cause hospitalization, first study; format: in vivo, human
[6] = tested on: hospitalization in subjects with HE; assay: Hospitalizations, second study; format: in vivo, human
Text: Normalizing for subject exposure, this represents a hospitalization rate of 0.60 event/PEY. A total of 59 were hospitalized due HE episodes (e.g., HE-caused). Normalizing for subject exposure, this represents an HE-caused hospitalization rate of 0.29 event/PEY. […] All subjects were capable of worsening over time, and 24/266 subjects (9.0%) did so by 1 or 2 grades.

[7] = first HE-related hospitalization, Table 4, 550 mg BID, N = 140, Days >=168
[8] = first HE-related hospitalization, Table 4; 550 mg BID; N = 140; Days [0-28)
[9] = first HE-related hospitalization, Table 4, 550 mg BID, N = 140, Days [28-56]
[10] = first HE-related hospitalization, Table 4; 550 mg BID; N = 140; Days [56-84)
[11] = first HE-related hospitalization, Table 4; 550 mg BID; N = 140; Days [84-140)
[12] = first HE-related hospitalization, Table 4; 550 mg BID; N = 140; Days [140-168)
[13] = first HE-related hospitalization, Table 17, 550 mg BID, N = 140, Days >=168
[14] = first HE-related hospitalization, Table 17; 550 mg BID; N = 140; Days [0-28)
[15] = first HE-related hospitalization, Table 17; 550 mg BID; N = 140; Days [28-56)
[16] = first HE-related hospitalization, Table 17; 550 mg BID; N = 140; Days [56-84)
[17] = first HE-related hospitalization, Table 17; 550 mg BID; N = 140; Days [84-140)
[18] = first HE-related hospitalization, Table 17; 550 mg BID; N = 140; Days [140-168)
[19] = first study, first HE-related hospitalization, N = 140, treatment interval 0 to <28 days
[20] = first study, first HE-related hospitalization, N = 140, treatment interval 28 to <56 days
[21] = first study, first HE-related hospitalization, N = 140, treatment interval 56 to <84 days
[22] = first study, first HE-related hospitalization, N = 140, treatment interval 84 to <140 days
[23] = first study, first HE-related hospitalization, N = 140, treatment interval 140 to <168 days
[24] = first study, first HE-related hospitalization, N = 140, treatment interval ≥168 days

CO[C@H]1/C=C/O[C@@]2(C)Oc3c(C)c(O)c4c(O)c(c5c(nc6cc(C)ccn65)c4c3C2=O)NC(=O)/C(C)=C\C=C\[C@H](C)[C@H](O)[C@@H](C)[C@@H](O)[C@@H](C)[C@H](OC(C)=O)[C@@H]1C [Rifaximin]
Cumulative Occurrences of Events [1, 7]: 23 | Occurrences of Events [1, 7]: 0 | Survival [1, 7]: 0.8108 | Cumulative Occurrences of Events [1, 8]: 6 | Occurrences of Events [1, 8]: 6 | Survival [1, 8]: 1.0000 | Cumulative Occurrences of Events [1, 9]: 10 | Occurrences of Events [1, 9]: 4 | Survival [1, 9]: 0.9564 | Cumulative Occurrences of Events [1, 10]: 15 | Occurrences of Events [1, 10]: 5 | Survival [1, 10]: 0.9258 | Cumulative Occurrences of Events [1, 11]: 20 | Survival [1, 11]: 0.8848 | Cumulative Occurrences of Events [1, 12]: 23 | Occurrences of Events [1, 12]: 3 | Survival [1, 12]: 0.8403 | Cumulative Occurrences of Events [1, 13]: 19 | Occurrences of Events [1, 13]: 0 | Survival [1, 13]: 0.8475 | Cumulative Occurrences of Events [1, 14]: 4 | Occurrences of Events [1, 14]: 4 | Survival [1, 14]: 1.0000 | Cumulative Occurrences of Events [1, 15]: 8 | Occurrences of Events [1, 15]: 4 | Survival [1, 15]: 0.9711 | Cumulative Occurrences of Events [1, 16]: 12 | Occurrences of Events [1, 16]: 4 | Survival [1, 16]: 0.9411 | Cumulative Occurrences of Events [1, 17]: 17 | Occurrences of Events [1, 17]: 5 | Survival [1, 17]: 0.9094 | Cumulative Occurrences of Events [1, 18]: 19 | Occurrences of Events [1, 18]: 2 | Survival [1, 18]: 0.8665 | Cummulative number of events [1, 19]: 4 | Number of events [1, 19]: 4 | Probability of no HE-related hospitalization [1, 19]: 1.0000 | Cummulative number of events [1, 20]: 8 | Number of events [1, 20]: 4 | Cummulative number of events [1, 21]: 12 | Number of events [1, 21]: 4 | Cummulative number of events [1, 22]: 17 | Number of events [1, 22]: 5 | Probability of no HE-related hospitalization [1, 22]: 0.9094 | Cummulative number of events [1, 23]: 19 | Number of events [1, 23]: 2 | Cummulative number of events [1, 24]: 19 | Number of events [1, 24]: 0 | subjects with HE-related hospitalizations (of 140) ([1]; first study, rifaximin group): 19 | reduction in risk of hospitalization due to HE (HE-related) compared with placebo ([1]; first study, 6-month treatment period): 50% | time to first HE related hospitalization vs placebo (FIG. 3, Kaplan Meier) ([1]; in vivo): increased time to hospitalization | highest anticipated free plasma exposure [2]: 0.03 µM | Change from Baseline for Epworth Sleepiness Total Score, Max ([3]; Baseline to Day 28): 7 | Change from Baseline for Epworth Sleepiness Total Score, Mean ([3]; Baseline to Day 28): −0.2 | Change from Baseline for Epworth Sleepiness Total Score, Median ([3]; Baseline to Day 28): 0.0 | Change from Baseline for Epworth Sleepiness Total Score, Min ([3]; Baseline to Day 28): −14 | Epworth Sleepiness Total Score, Max ([3]; Day 28): 23 | Epworth Sleepiness Total Score, Mean ([3]; Day 28): 10.0 | Epworth Sleepiness Total Score, Median ([3]; Day 28): 9.0 | Epworth Sleepiness Total Score, Min ([3]; Day 28): 0 | TEAE ascites, subjects (subjects with HE): 11.4% | TEAE diarrhea, subjects (subjects with HE): 10.7% | TEAE dizziness, subjects (subjects with HE): 12.9% | TEAE fatigue, subjects (subjects with HE): 12.1% | TEAE headache, subjects (subjects with HE): 10% | TEAE nausea, subjects (subjects with HE): 14.3% | TEAE peripheral edema, subjects (subjects with HE): 15% | Change from baseline in asterixis grade, Max [4]: 2 | Change from baseline in asterixis grade, Mean [4]: 0.0 | Change from baseline in asterixis grade, Median [4]: 0.0 | Change from baseline in asterixis grade, Min [4]: −2 | Number of subjects with change from baseline in asterixis grade of 0 ([4]; n = 139): 108 | Number of subjects with change from baseline in asterixis grade of 1 ([4]; n = 139): 10 | Number of subjects with change from baseline in asterixis grade of 2 ([4]; n = 139): 2 | Number of subjects with change from baseline in asterixis grade of 3 ([4]; n = 139): 0 | Number of subjects with change from baseline in asterixis grade of 4 ([4]; n = 139): 0 | Number of subjects with change from baseline in asterixis grade of −1 ([4]; n = 139): 18 | Number of subjects with change from baseline in asterixis grade of −2 ([4]; n = 139): 1 | Percent of subjects with change from baseline in asterixis grade of 0 ([4]; n = 139): 77.7% | Percent of subjects with change from baseline in asterixis grade of 1 ([4]; n = 139): 7.2% | Percent of subjects with change from baseline in asterixis grade of 2 ([4]; n = 139): 1.4% | Percent of subjects with change from baseline in asterixis grade of −1 ([4]; n = 139): 12.9% | Percent of subjects with change from baseline in asterixis grade of −2 ([4]; n = 139): 0.7% | reduction in risk of all-cause hospitalization compared with placebo [5]: 30% | subjects with all-cause hospitalization (of 140) ([5]; rifaximin group): 46 | all-cause hospitalization rate ([5]; rifaximin group, normalized for exposure): 0.90 events/PEY | all cause hospitalization rate [6]: 0.60 event/PEY | subjects hospitalized due HE episodes (HE-caused) [6]: 59 | subjects hospitalized for any cause (of 266) ([6]; all rifaximin): 133 | subjects hospitalized for any cause ([6]; continuing rifaximin group): 35 | subjects hospitalized for any cause ([6]; new rifaximin group): 98
